Experimental findings from patent US20210030022A1, “NOVEL USE OF SUBSTITUTED CHROMAN-6-OLS” (DSM IP ASSETS B.V., priority 2018, published 2021) are described below.

Data set [1] is described as follows: Oxipres antioxidant efficacy value (EV) in pet food. Particulars: Oxipres 70° C., 5 bar O2, equimolar to BHT; EV relative to BHT (EV=1). On the procedure:
(§1) Oxidative stability was assessed using an Oxipres (Mikrolab Aarhus A/S, Hojbjerg, Denmark). The ML OXIPRES® is designed to monitor the oxidation of heterogeneous products. Consumption of oxygen results in a pressure drop which is measured by means of pressure transducers. The samples are heated to accelerate the process and shorten the analysis time (Mikrolab Aarhus 2012).
(§2) Sample weights were 50 g. They were loaded into the Oxipres vessels and placed inside the stainless-steel pressure vessel and sealed. The pressure vessels were purged with pure oxygen and filled to an initial oxygen pressure of 5 bar and maintained at 70° C. during measurement (D. Ying, L. Edin, L. Cheng, L. Sanguansri, M. A. Augustin, LWT—Food Science and Technology 2015, 62, 1105-1111: “Enhanced oxidative stability of extruded product containing polyunsaturated oils.”).
(§3) The oxygen pressure was recorded as function of time. After sample load and temperature rise the pressure in the device is increasing within 10 hours up to the starting pressure. Thereafter it is decreasing. Consequently, the starting pressure is considered as being the pressure after 10 hours. The analysis ends after 130 hours at 70° C. The oxygen consumption ‘O2’ of the tested sample is calculated as follows: […]
(§4) A factor of protection called ‘EV’ (Efficacy Value) was developed to quantify with a relative number (relative to BHT) the antioxidant effect of the tested candidates. EV was calculated as follows:
(§5) EV, being relative to BHT (3,5-di-tert-butyl-4-hydroxy-toluene) (EV=1), makes it possible to compare the antioxidant compounds in a defined feed application.
(§6) Each of the compounds of formulae (1) to (6) were mixed into each matrix 1, 2 or 3 (pet food, poultry meal, fish meal) in an equimolar ratio compared to BHT. Batches of 200 g feed were produced in order to handle a minimum of 30 mg of antioxidant. First, a 1% pre-dilution of the antioxidant with the feed material was made. Then this pre-dilution was added to the final batch, mixed, sieved (1.25 mm sieve) and mixed using a turbula mixer. Thereafter 55 g of the final batch were packed into polyethylene bags, and stored at 4° C. until start of the Oxipres assay. Spare sample were stored at 4° C. Compound of formula (3) was measured in all three matrices. Compound of formula (1) was measured in matrix 1 and 2. Compound of formula (2) was measured in matrix 2. Compounds of formulae (4), (5) and (6) were measured in matrix 3. An efficacy value 0.7 has been considered as acceptable, an efficacy value ≥ the efficacy value of alpha-tocopherol as good, and an efficacy value ≥ the efficacy value of BHT as very good.

Data set [2] can be described thus: Oxipres antioxidant efficacy value (EV) in poultry meal. Particulars: Oxipres 70° C., 5 bar O2, equimolar to BHT; EV relative to BHT (EV=1). As to the method:
as §1, §2, §3, §4, §5, §6

The nature of data set [3]: Oxipres antioxidant efficacy value (EV) in fish meal. To be noted: Oxipres 70° C., 5 bar O2, equimolar to BHT; EV relative to BHT (EV=1). On the procedure: as §1, §2, §3, §4, §5, §6
A further data set can be described thus: Solubility in fish oil. Format: physicochemical. Particulars: fish oil, 0.5 and 2 mg/g; mixed around 40° C. to dissolve completely. On the procedure: The compounds of formulae (4), (6), (8) and (9) were evaluated primarily for their oxidative stability by the Oil Stability Index (OSI) measurements. Two different levels of these antioxidants (0.5 and 2 mg/g) were used in 5 g of natural fish oil (Product code: FG30TG) and used in the Oxidative Stability Instrument at 80° C. with the air flow rate of 40 psi. The solubility of different amounts and types of antioxidants used in OSI was checked before and after the application. […]

Data set [4] in a line: Oil Stability Index (OSI) in fish oil, Example 13. To be noted: for OSI: Table 28, FG30TG fish oil, 80° C.; for Protection Factor (%): Table 34, fish oil (80° C.). On the procedure: The compounds of formulae (3) and (7) were used in both fish and algal oils to see their antioxidant effect in these oils. Antioxidant effect was determined using mainly the Oil Stability Index (OSI). Two concentration levels were used: 0.5 mg/g (low level) and 2 mg/g (high level), respectively, have been added to 5 g of oil and used in the Oxidative Stability Instrument operated at 80° C. with the continuous air flow rate at ˜40 psi. All samples were run in duplicate. The Protection Factors (PF) for each compound, as percentage, in oil were calculated as, [formula]

Data set [5] is described as follows: Storage stability in fish oil (PV, p-AV), Example 13. Particulars: for Peroxide values (PV, meq/kg) / p-Anisidine value (p-AV): storage at 25° C. On the procedure:
A storage stability study was performed to compare the variation of primary oxidation products, the hydroperoxides, generated during oxidation, measured in terms of peroxide value (PV) and the secondary oxidation products which were measured and determined as anisidine reactive substances or p-anisidine value (p-AV) of oil samples containing these compounds.
The two different concentrations of compounds of formulae (3) and (7) were used for the storage stability study. Each compound and MNT were added, each individually, to 40 g of fish oil samples in 60 ml amber bottles at 0.5 mg/g and 2 mg/g levels, thoroughly mixed and stored at ambient temperature for 19 days. All sample bottles were stored open to air, away from light. […] Peroxide values (PV) and p-anisidine values (p-AV) were determined at different times for 19 days.

A short description of data set [6]: Oil Stability Index (OSI) in crude algal oil, Example 13. Particulars: for OSI: Table 33, crude algal oil (contained about 1.6 mg/g MNT prior to use), 80° C.; for Protection Factor (%): Table 35, crude algal oil (80° C.). As to the method:
The compounds of formulae (3) and (7) were used in both fish and algal oils to see their antioxidant effect in these oils. Antioxidant effect was determined using mainly the Oil Stability Index (OSI).
Two concentration levels were used: 0.5 mg/g (low level) and 2 mg/g (high level), respectively, have been added to 5 g of oil and used in the Oxidative Stability Instrument operated at 80° C. with the continuous air flow rate at ˜40 psi. All samples were run in duplicate. The Protection Factors (PF) for each compound, as percentage, in oil were calculated as,
The Oil Stability Indices (OSI) of crude algal oil with levels of 0.5 mg/g and 2 mg/g of compounds of formulae (3) or (7) are shown in Table 33.

Data set [7] is described as follows: Oil Stability Index (OSI) in fish oil, Example 12. Particulars: for OSI: Table 15, 80° C.; for OSI / Protection Factor (%): FG30TG fish oil; for Protection Factor (%): Table 18. On the procedure:
The compounds of formulae (4), (6), (8) and (9) were evaluated primarily for their oxidative stability by the Oil Stability Index (OSI) measurements. Two different levels of these antioxidants (0.5 and 2 mg/g) were used in 5 g of natural fish oil (Product code: FG30TG) and used in the Oxidative Stability Instrument at 80° C. with the air flow rate of 40 psi. The solubility of different amounts and types of antioxidants used in OSI was checked before and after the application.
The compounds of formulae (6) and (9) (see Table 14 below), compound of formula (4) (see Table 15 below) and compound of formula (8) (see Table 16 below) were used at different times in the Oxidative Stability instruments under similar operational conditions used for fish oil evaluations. MNT and the oil without any antioxidants (“Blank”) were always used to compare. Also, the synergistic effect of only oil soluble compounds with ascorbyl palmitate was determined using the OSI values. The polymers generated at the end of the experiment were determined by LC (LC=liquid chromatography).
The Protection Factors (PF) for each compound in oil were calculated in percentage as: […]

Molecules are shown by their SMILES. “Also recorded” adds a separate entry of the source.

In the case of `Cc1cc(C(C)(C)C)c(O)c(C(C)(C)C)c1` [BHT, 3,5-di-tert-butyl-4-hydroxy-toluene, reference compound], in data set [1], the “EV in pet food” value turned out to be 1. Also, the “EV in poultry meal” value in data set [2] amounted to 1. For the same compound, the “EV in Fish meal” value in data set [3] is listed as 1.

In the case of `Oc1ccc2c(c1)CCCO2` [Compound of formula (1), chroman-6-ol], the “EV in pet food” value in data set [1] stood at 0.98. In addition, in data set [2], the “EV in poultry meal” value turned out to be 1.12.

Regarding `CC1CCc2cc(O)ccc2O1` (stereo not drawn) [Compound of formula (2), 2-methyl-chroman-6-ol], the “EV in poultry meal” value in data set [2] is 1.09.

In the case of `CC1(C)CCc2cc(O)ccc2O1` [Compound of formula (3), 2,2-dimethyl-chroman-6-ol], in data set [1], the “EV in pet food” value is on record as 0.95. Also, the “EV in poultry meal” value in data set [2] came to 1.17. The “EV in Fish meal” value in data set [3] was determined as 0.96. Besides, the Solubility in oil result in “Solubility in fish oil” was “not readily soluble in oil”. Further, the “OSI” value came out at 7.13 h in data set [4] (0.5 mg/g), 7.48 h in data set [4] (2 mg/g), 17.05 h in data set [6] (0.5 mg/g) and 18.63 h in data set [6] (2 mg/g). In addition, the “Protection Factor (%)” value in data set [4] (0.5 mg/g) is 42.5%; in data set [4] (2 mg/g), 49.5%; in data set [6] (0.5 mg/g) it was 13.7%; in data set [6] (2 mg/g) it was 24.2%. Moreover, the “antioxidant activity (OSI) in fish oil compared with MNT” value in data set [4] (fish oil, Example 13, 0.5 and 2 mg/g) is reported as “slightly higher Oil Stability Indices than those of MNT; also recorded: comparable in activity with MNT”. Further, in data set [5] (0.5 mg/g concentration), the “level of secondary oxidation products (p-AV) during storage” value was “lowest level of secondary oxidation products (p-AV)”. For the same compound, the “Peroxide values (PV, meq/kg)” value in data set [5] (0.5 mg/g level, 1 day) came to 1 meq/kg; in data set [5] (0.5 mg/g level, 5 days), 2 meq/kg; in data set [5] (0.5 mg/g level, 8 days), 6.4 meq/kg; in data set [5] (0.5 mg/g level, 14 days), 12.8 meq/kg; in data set [5] (0.5 mg/g level, 19 days) it was 20.9 meq/kg; in data set [5] (0.5 mg/g level, Initial), 1 meq/kg. In addition, the “Peroxide values (PV, meq/kg)” value in data set [5] (2 mg/g level, 1 day) was 1 meq/kg; in data set [5] (2 mg/g level, 5 days), 1.9 meq/kg; in data set [5] (2 mg/g level, 8 days) it was 6.4 meq/kg; in data set [5] (2 mg/g level, 14 days) it was 14.1 meq/kg; in data set [5] (2 mg/g level, 19 days), 26.8 meq/kg; in data set [5] (2 mg/g level, Initial), 1 meq/kg. Further, the “p-Anisidine value (p-AV)” value in data set [5] (0.5 mg/g level, 1 day) was 9.5; in data set [5] (0.5 mg/g level, 5 days) it was 9.5; in data set [5] (0.5 mg/g level, 8 days), 11.2; in data set [5] (0.5 mg/g level, 14 days), 11.4; in data set [5] (0.5 mg/g level, 19 days), 12.8; in data set [5] (0.5 mg/g level, Initial), 9.4. Moreover, the “p-Anisidine value (p-AV)” value is given as 9.4 in data set [5] (2 mg/g level, 1 day); 9.3 in data set [5] (2 mg/g level, 5 days); 10.8 in data set [5] (2 mg/g level, 8 days); 11.2 in data set [5] (2 mg/g level, 14 days); 11.8 in data set [5] (2 mg/g level, 19 days); 9.4 in data set [5] (2 mg/g level, Initial).

Take `COc1cc2c(cc1O)CCC(C)(C)O2` [Compound of formula (4), 7-Methoxy-2,2-Dimethyl-6-Chromanol]: the “EV in Fish meal” value in data set [3] was 1.05. Besides, in data set [7] (0.5 mg/g), the “OSI” value stood at 4.98 h and the “Protection Factor (%)” value is on record as 4.74%. In data set [7] (2 mg/g), the “OSI” value was 5.95 h and the “Protection Factor (%)” value stood at 25.26%. Also, the “antioxidant effect (OSI) in fish oil compared with MNT” value in data set [7] (fish oil, Example 12, same level of MNT) was “lower OSI values than those of MNT”.

As for `Cc1c(C)c2c(c(C)c1O)CCC(C)(C)O2` [Compound of formula (5), 2,2,5,7,8-pentamethyl-chroman-6-ol], the “EV in Fish meal” value in data set [3] is on record as 1.08.

For the compound `Cc1c(C)c2c(c(C)c1O)CC[C@@](C)(CCC[C@H](C)CCC[C@H](C)CCCC(C)C)O2` [alpha-tocopherol, reference compound], in data set [1], the “EV in pet food” value is on record as 0.77. Besides, the “EV in poultry meal” value in data set [2] was found to be 0.74. The “EV in Fish meal” value in data set [3] came out at 0.88.
